Data from patent publication US20240368209A1, “GEMCITABINE ANTICANCER DERIVATIVE AND ANTICANCER PHARMACEUTICAL USE” (ASCENTAWITS PHARMACEUTICALS, LTD., priority 2021, published 2024).

How the values were obtained:
[1] = Metabolic stability in rat liver microsomes; type: in vitro ADME
Procedure: Main solutions were prepared according to Table 9 below:
(II) Two Separate Experiments were Performed • a) With cofactor (NADPH): 25 μL of 10 mM NADPH was added to the culture broth. The final concentration of liver microsomes was 0.5 mg/mL, and the final concentration of NADPH was 1 mM. • b) Without cofactor (NADPH): 25 μL of 100 mM phosphate buffer was added. The final concentration of liver microsomes was 0.5 mg/mL. The mixture was preheated at 37° C. for 10 minutes. (III) 25 μL of […] control compound or test compound solution was added to start the reaction. […] The final concentrations of the test compound and control compound were both 1 μM. The culture broth was cultured in water at 37° C. (IV) Aliquots of 30 μL were collected from the reaction solution at 0.5, 5, 15, 30, and 60 minutes, respectively. 5 volumes of cold acetonitrile and IS (internal standard, containing 100 nM of alprazolam, 200 nM of caffeine, and 100 nM of tolylbutanamide) were added to stop the reaction. […] 100 μL of supernatant was taken and mixed with 100 μL of ultrapure water, equally divided and analyzed with LC-MS/MS.
All calculations were conducted using Microsoft Excel. The peak area was determined from the extracted ion chromatogram.
[formula] [formula] [formula] • wherein, QH is the hepatic blood flow (mL/min/kg) in Table 10, and fub is the fraction of drug unbound in plasma, and assumed as 1.

[2] = tested on: HuPrime pancreatic cancer xenograft model PA1222; experiment: In vivo pharmacodynamic experiment in HuPrime pancreatic cancer PA1222 PDX model; settings: for Tumor volume (x ± S): mean ± standard error
[3] = Group 3, 240 mg/kg p.o. QD×21, Day 32
[4] = Group 4, 160 mg/kg i.p. QD×5, 2 days off, 2 weeks off, QD×5, Day 32

Structure (SMILES): CC(C)NP(=O)(OCc1ccc([N+](=O)[O-])c(Oc2ccc(-c3ccc(F)cc3)c(F)c2)c1)OCC1OC(C2N=CC(N)=NC2=O)C(F)(F)C1O (centres unmarked) [Compound H11]
- Hepatic Extraction Ratio (ER) [1]: 0.71
- Predicted Hepatic CLH [1]: 48.43 mL/min/kg
- clearance and stability in liver microsomes (in words) [1]: medium clearances and certain stability
- Remaining percentage (%) ([1]; NADPH added, 0.5 minutes, 1 μM): 100.00%
- Remaining percentage (%) ([1]; NADPH added, 5 minutes): 85.67%
- Remaining percentage (%) ([1]; NADPH added, 15 minutes): 56.17%
- Remaining percentage (%) ([1]; NADPH added, 30 minutes): 29.55%
- Remaining percentage (%) ([1]; NADPH added, 60 minutes): 13.20%
- Remaining percentage (%) ([1]; NADPH not added, 0.5 minutes): 100.00%
- Remaining percentage (%) ([1]; NADPH not added, 60 minutes): 103.20%
- half-life at 1 μM ([1]; read-out: In vitro half-life t1/2): 20.1 min
- microsomal CLint at 1 μM ([1]; read-out: In vitro intrinsic clearance CLint): 69 µL/min/mg
- CLint scaled at 1 μM ([1]; read-out: Scale-up CLint): 168 mL/min/kg
- weight loss and tolerability during treatment ([2]; Group 3, 240 mg/kg p.o. QD×21): did not show any significant weight loss, and tolerated well
- Relative tumor volume (x ± S) [2, 3]: 0.47 ± 0.27
- T/C (%) [2, 3]: 7.65%
- TGI (%) [2, 3]: 92.35%
- complete tumor inhibition rate [2, 3]: 20%
- Tumor volume (x ± S) [2, 3]: 44.61 ± 22.14
- Average weight (g) of mice ([2]; Group 3, 240 mg/kg p.o., Day 0): 21.8 g
- Average weight (g) of mice ([2]; Group 3, 240 mg/kg p.o., Day 1): 21.5 g
- Average weight (g) of mice ([2]; Group 3, 240 mg/kg p.o., Day 2): 21.5 g
- Average weight (g) of mice ([2]; Group 3, 240 mg/kg p.o., Day 3): 21.6 g
- Average weight (g) of mice ([2]; Group 3, 240 mg/kg p.o., Day 4): 21.9 g
- Average weight (g) of mice ([2]; Group 3, 240 mg/kg p.o., Day 5): 22.3 g
- Average weight (g) of mice ([2]; Group 3, 240 mg/kg p.o., Day 6): 21.7 g
- Average weight (g) of mice ([2]; Group 3, 240 mg/kg p.o., Day 7): 21.6 g
- Average weight (g) of mice ([2]; Group 3, 240 mg/kg p.o., Day 8): 21.7 g
- Average weight (g) of mice ([2]; Group 3, 240 mg/kg p.o., Day 9): 22.5 g
- Average weight (g) of mice ([2]; Group 3, 240 mg/kg p.o., Day 10): 21.6 g
- Average weight (g) of mice ([2]; Group 3, 240 mg/kg p.o., Day 11): 21.9 g
- Average weight (g) of mice ([2]; Group 3, 240 mg/kg p.o., Day 12): 22.0 g
- Average weight (g) of mice ([2]; Group 3, 240 mg/kg p.o., Day 13): 21.9 g
- Average weight (g) of mice ([2]; Group 3, 240 mg/kg p.o., Day 14): 21.6 g
- Average weight (g) of mice ([2]; Group 3, 240 mg/kg p.o., Day 15): 21.6 g
- Average weight (g) of mice ([2]; Group 3, 240 mg/kg p.o., Day 16): 22.1 g
- Average weight (g) of mice ([2]; Group 3, 240 mg/kg p.o., Day 17): 21.8 g
- Average weight (g) of mice ([2]; Group 3, 240 mg/kg p.o., Day 18): 21.9 g
- Average weight (g) of mice ([2]; Group 3, 240 mg/kg p.o., Day 19): 21.8 g
- Average weight (g) of mice ([2]; Group 3, 240 mg/kg p.o., Day 20): 21.9 g
- Average weight (g) of mice ([2]; Group 3, 240 mg/kg p.o., Day 21): 21.8 g
- Average weight (g) of mice ([2]; Group 3, 240 mg/kg p.o., Day 25): 22.6 g
- Average weight (g) of mice ([2]; Group 3, 240 mg/kg p.o., Day 28): 22.4 g
- Average weight (g) of mice ([2]; Group 3, 240 mg/kg p.o., Day 32): 22.9 g
- Tumor volume (mm^3) (x ± S) ([2]; Group 3, 240 mg/kg p.o., day 0): 102.83 mm^3
- Tumor volume (mm^3) (x ± S) ([2]; Group 3, 240 mg/kg p.o., day 4): 123.16 mm^3
- Tumor volume (mm^3) (x ± S) ([2]; Group 3, 240 mg/kg p.o., day 7): 90.07 mm^3
- Tumor volume (mm^3) (x ± S) ([2]; Group 3, 240 mg/kg p.o., day 11): 54.28 mm^3
- Tumor volume (mm^3) (x ± S) ([2]; Group 3, 240 mg/kg p.o., day 14): 41.73 mm^3
- Tumor volume (mm^3) (x ± S) ([2]; Group 3, 240 mg/kg p.o., day 18): 34.60 mm^3
- Tumor volume (mm^3) (x ± S) ([2]; Group 3, 240 mg/kg p.o., day 21): 29.52 mm^3
- Tumor volume (mm^3) (x ± S) ([2]; Group 3, 240 mg/kg p.o., day 25): 30.71 mm^3
- Tumor volume (mm^3) (x ± S) ([2]; Group 3, 240 mg/kg p.o., day 28): 30.59 mm^3
- Tumor volume (mm^3) (x ± S) ([2]; Group 3, 240 mg/kg p.o., day 32): 44.61 mm^3
- weight loss and tolerability during treatment ([2]; Group 4, 160 mg/kg i.p. QD×5, 2 days off, 2 weeks off, QD×5): did not show any significant weight loss, and tolerated well
- Relative tumor volume (x ± S) [2, 4]: 2.01 ± 0.41
- T/C (%) [2, 4]: 32.38%
- TGI (%) [2, 4]: 67.62%
- Tumor volume (x ± S) [2, 4]: 202.58 ± 45.40
- Average weight (g) of mice ([2]; Group 4, 160 mg/kg i.p., Day 0): 21.4 g
- Average weight (g) of mice ([2]; Group 4, 160 mg/kg i.p., Day 1): 22.0 g
- Average weight (g) of mice ([2]; Group 4, 160 mg/kg i.p., Day 2): 21.5 g
- Average weight (g) of mice ([2]; Group 4, 160 mg/kg i.p., Day 3): 22.0 g
- Average weight (g) of mice ([2]; Group 4, 160 mg/kg i.p., Day 4): 21.7 g
- Average weight (g) of mice ([2]; Group 4, 160 mg/kg i.p., Day 7): 22.3 g
